In patent US9981975B2, “Pyrrolotriazine compounds as tam inhibitors” (Incyte Corporation, priority 2016, dated 2018):

Assays:
Tyro3 = Tyro3 (Homo sapiens (Human), UniProt Q06418); test: TAM Enzymatic Assay (HTRF), Tyro3; assay type: biochemical; details: Tyro3, 60 min, room temperature
Protocol: (§1) The kinase assay buffer contained 50 mM HEPES, pH7.5, 10 mM MgCl2, 1 mM EGTA, 0.01% NP-40 and 2 mM DTT. 0.1 ul test compounds dissolved in DMSO were transferred from compound plates to white 384-well assay plates (Greiner […] plates). […] 4 ul enzyme solution (or assay buffer for the enzyme blank) was added to the appropriate wells in each plate, and then 4 ul/well substrate solution was added to initiate the reaction. The plate was protected from light and incubated at room temperature for 60 min. […] The plate was incubated for 1 h at room temperature, and HTRF (homogenous time resolved fluorescence) signal was measured on a PHERAstar FS plate reader (BMG labtech). Percentage of inhibition was calculated for each concentration and IC50 value was generated from curve fitting with GraphPad Prism software.

phosphor-Axl = phosphor-Axl (Homo sapiens (Human), UniProt P30530); test: TAM Enzymatic Assay (HTRF), Axl; assay type: biochemical; details: recombinant autophosphorylated Axl, 60 min, room temperature
phosphor-Axl, sequence (P30530 26-894): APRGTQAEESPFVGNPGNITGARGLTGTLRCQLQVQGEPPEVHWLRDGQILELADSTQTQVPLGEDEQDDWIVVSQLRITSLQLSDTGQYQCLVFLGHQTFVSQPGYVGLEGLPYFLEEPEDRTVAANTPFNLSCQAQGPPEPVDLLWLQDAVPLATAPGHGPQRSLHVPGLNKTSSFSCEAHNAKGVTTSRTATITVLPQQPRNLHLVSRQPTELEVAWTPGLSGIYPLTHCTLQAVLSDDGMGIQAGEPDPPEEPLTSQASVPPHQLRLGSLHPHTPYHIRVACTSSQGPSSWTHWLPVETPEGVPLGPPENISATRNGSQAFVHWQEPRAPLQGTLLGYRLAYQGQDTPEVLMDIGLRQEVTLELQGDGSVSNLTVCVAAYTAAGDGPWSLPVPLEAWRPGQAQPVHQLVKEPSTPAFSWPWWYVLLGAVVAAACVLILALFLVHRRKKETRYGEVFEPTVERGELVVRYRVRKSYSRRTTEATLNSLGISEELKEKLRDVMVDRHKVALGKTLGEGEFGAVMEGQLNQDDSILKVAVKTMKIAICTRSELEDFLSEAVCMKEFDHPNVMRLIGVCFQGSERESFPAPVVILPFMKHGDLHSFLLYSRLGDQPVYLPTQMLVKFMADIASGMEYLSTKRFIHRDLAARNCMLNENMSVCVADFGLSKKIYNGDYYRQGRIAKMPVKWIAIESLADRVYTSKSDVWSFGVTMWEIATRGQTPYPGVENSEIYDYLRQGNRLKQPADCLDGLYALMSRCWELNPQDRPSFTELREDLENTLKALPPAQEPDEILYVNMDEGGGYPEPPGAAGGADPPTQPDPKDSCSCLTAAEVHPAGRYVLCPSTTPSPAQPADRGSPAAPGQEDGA
Protocol: Autophosphorylation of Axl was carried out by incubating the recombinant Axl protein (Life Technologies, PV4275) in buffer containing 50 mM Tris, pH7.5, 0.2 mg/ml Axl, 5 mM ATP, 20 mM MgCl2 and 2 mM DTT at room temperature for 1 hour.
as §1

Tyro3, sequence (Q06418 41-890): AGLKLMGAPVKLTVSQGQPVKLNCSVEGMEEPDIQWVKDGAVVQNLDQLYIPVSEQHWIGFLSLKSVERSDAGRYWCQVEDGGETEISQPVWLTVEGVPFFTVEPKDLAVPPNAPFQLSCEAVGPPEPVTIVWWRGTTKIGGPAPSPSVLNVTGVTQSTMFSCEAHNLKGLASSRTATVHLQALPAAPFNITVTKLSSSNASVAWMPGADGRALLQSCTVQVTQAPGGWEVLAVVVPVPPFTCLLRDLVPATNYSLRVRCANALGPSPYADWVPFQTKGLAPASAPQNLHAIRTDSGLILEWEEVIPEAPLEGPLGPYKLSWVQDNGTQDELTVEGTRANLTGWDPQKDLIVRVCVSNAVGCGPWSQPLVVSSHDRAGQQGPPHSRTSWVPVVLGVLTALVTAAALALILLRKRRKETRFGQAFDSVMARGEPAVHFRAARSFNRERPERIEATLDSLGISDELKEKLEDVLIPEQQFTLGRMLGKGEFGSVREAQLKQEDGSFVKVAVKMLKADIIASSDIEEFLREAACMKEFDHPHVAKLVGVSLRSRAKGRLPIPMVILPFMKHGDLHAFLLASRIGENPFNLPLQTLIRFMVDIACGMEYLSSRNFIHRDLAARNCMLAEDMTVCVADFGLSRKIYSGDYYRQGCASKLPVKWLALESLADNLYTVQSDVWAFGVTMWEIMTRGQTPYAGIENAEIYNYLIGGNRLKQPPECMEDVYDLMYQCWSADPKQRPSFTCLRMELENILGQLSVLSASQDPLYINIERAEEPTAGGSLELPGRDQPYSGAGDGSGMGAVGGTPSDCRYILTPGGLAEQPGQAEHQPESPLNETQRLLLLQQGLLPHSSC

| IC50 (Tyro3) [µM] | IC50 (phosphor-Axl) [µM] | Compound |
| --- | --- | --- |
| > 0.1 | ≤ 0.005 | Nc1ncnn2c(C3CCN(CCO)CC3)cc(-c3ccc(NC(=O)c4cc5c(n(-c6ccc(F)cc6)c4=O)CCCC5=O)cc3)c12 [Example 59, N-(4-{4-Amino-7-[1-(2-hydroxyethyl)piperidin-4-yl]pyrrolo[2,1-f][1,2,4]triazin-5-yl}phenyl)-1-(4-fluorophenyl)-2,5-dioxo-1,2,5,6,7,8-hexahydroquinoline-3-carboxamide] |
| > 0.1 | ≤ 0.005 | CCN(C)C(=O)N1CCC(c2cc(-c3ccc(NC(=O)c4cn(C(C)C)c(=O)n(-c5ccccc5F)c4=O)cc3)c3c(N)ncnn23)CC1 [Example 69, N-(4-(4-Amino-7-(1-(ethyl(methyl)carbamoyl)piperidin-4-yl)pyrrolo[1,2-f][1,2,4]triazin-5-yl)phenyl)-3-(2-fluorophenyl)-1-isopropyl-2,4-dioxo-1,2,3,4-tetrahydropyrimidine-5-carboxamide] |
| > 0.1 | ≤ 0.005 | CCn1cc(C(=O)Nc2ccc(-c3cc(C4CCN(C(=O)N(C)C)CC4)n4ncnc(N)c34)cc2)c(=O)n(-c2cccc(F)c2)c1=O [Example 72, N-(4-(4-Amino-7-(1-(dimethylcarbamoyl)piperidin-4-yl)pyrrolo[1,2-f][1,2,4]triazin-5-yl)phenyl)-1-ethyl-3-(3-fluorophenyl)-2,4-dioxo-1,2,3,4-tetrahydropyrimidine-5-carboxamide] |
| > 0.1 | ≤ 0.005 | CCn1cc(C(=O)Nc2ccc(-c3cc(C4CCN(C(=O)C(C)C)CC4)n4ncnc(N)c34)cc2)c(=O)n(-c2cccc(F)c2)c1=O [Example 73, N-(4-(4-Amino-7-(1-isobutyrylpiperidin-4-yl)pyrrolo[1,2-f][1,2,4]triazin-5-yl)phenyl)-1-ethyl-3-(3-fluorophenyl)-2,4-dioxo-1,2,3,4-tetrahydropyrimidine-5-carboxamide] |
| > 0.1 | ≤ 0.005 | CC(C)C(=O)N1CCC(c2cc(-c3ccc(NC(=O)c4cn(C(C)C)c(=O)n(-c5cc(F)ccc5F)c4=O)cc3)c3c(N)ncnn23)CC1 [Example 76, N-(4-(4-Amino-7-(1-isobutyrylpiperidin-4-yl)pyrrolo[1,2-f][1,2,4]triazin-5-yl)phenyl)-3-(2,5-difluorophenyl)-1-isopropyl-2,4-dioxo-1,2,3,4-tetrahydropyrimidine-5-carboxamide] |
| > 0.1 | ≤ 0.005 | Cc1cc(NC(=O)c2cn(C(C)C)c(=O)n(-c3ccccc3)c2=O)ccc1-c1cc(C2CCN(C(=O)C(C)C)CC2)n2ncnc(N)c12 [Example 77, N-(4-(4-Amino-7-(1-isobutyrylpiperidin-4-yl)pyrrolo[1,2-f][1,2,4]triazin-5-yl)-3-methylphenyl)-1-isopropyl-2,4-dioxo-3-phenyl-1,2,3,4-tetrahydropyrimidine-5-carboxamide] |
| > 0.1 | ≤ 0.005 | Cc1cc(C(=O)N(C)C)ncc1-c1cc(-c2ccc(NC(=O)c3cn(C(C)C)c(=O)n(-c4ccccc4)c3=O)cc2)c2c(N)ncnn12 [Example 85, N-(4-(4-amino-7-(6-(dimethylcarbamoyl)-4-methylpyridin-3-yl)pyrrolo[1,2-f][1,2,4]triazin-5-yl)phenyl)-1-isopropyl-2,4-dioxo-3-phenyl-1,2,3,4-tetrahydropyrimidine-5-carboxamide] |
| > 0.1 | ≤ 0.005 | CC(C)C(=O)N1CCC(c2cc(-c3ccc(NC(=O)c4cn(C(C)C)c(=O)n(-c5cccc(C#N)c5)c4=O)cc3)c3c(N)ncnn23)CC1 [Example 91, N-(4-(4-Amino-7-(1-isobutyrylpiperidin-4-yl)pyrrolo[2,1-f][1,2,4]triazin-5-yl)phenyl)-3-(3-cyanophenyl)-1-isopropyl-2,4-dioxo-1,2,3,4-tetrahydropyrimidine-5-carboxamide] |
| > 0.1 | ≤ 0.005 | CC(C)n1cc(C(=O)Nc2ccc(-c3cc(C4CN(C(=O)C5CC5)C4)n4ncnc(N)c34)cc2)c(=O)n(-c2ccccc2)c1=O [Example 94, N-(4-(4-amino-7-(1-(cyclopropanecarbonyl)azetidin-3-yl)pyrrolo[2,1-f][1,2,4]triazin-5-yl)phenyl)-1-isopropyl-2,4-dioxo-3-phenyl-1,2,3,4-tetrahydropyrimidine-5-carboxamide] |
| > 0.1 | ≤ 0.005 | CC(C)n1cc(C(=O)Nc2ccc(-c3cc(CN4CCOCC4)n4ncnc(N)c34)cc2)c(=O)n(-c2ccccc2)c1=O [Example 95, N-(4-(4-Amino-7-(morpholinomethyl)pyrrolo[1,2-f][1,2,4]triazin-5-yl)phenyl)-1-isopropyl-2,4-dioxo-3-phenyl-1,2,3,4-tetrahydropyrimidine-5-carboxamide] |
| > 0.1 | ≤ 0.005 | Cc1c(-c2cnn(C)c2)cc(C(=O)Nc2ccc(-c3cc(C4CCN(C(=O)C(C)C)CC4)n4ncnc(N)c34)cc2)c(=O)n1-c1ccccc1 [Example 107, N-{4-[4-Amino-7-(1-isobutyrylpiperidin-4-yl)pyrrolo[2,1-f][1,2,4]triazin-5-yl]phenyl}-6-methyl-5-(1-methyl-1H-pyrazol-4-yl)-2-oxo-1-phenyl-1,2-dihydropyridine-3-carboxamide] |
| > 0.1 | ≤ 0.005 | Cc1c(N2CCOCC2)cc(C(=O)Nc2ccc(-c3cc(C4CCN(C(=O)C(C)C)CC4)n4ncnc(N)c34)cc2)c(=O)n1-c1ccccc1 [Example 110, N-{4-[4-Amino-7-(1-isobutyrylpiperidin-4-yl)pyrrolo[2,1-f][1,2,4]triazin-5-yl]phenyl}-6-methyl-5-morpholin-4-yl-2-oxo-1-phenyl-1,2-dihydropyridine-3-carboxamide] |
| > 0.1 | ≤ 0.005 | CC(C)C(=O)N1CCC(c2cc(-c3ccc(NC(=O)c4cc5c(n(-c6cncc(F)c6)c4=O)CCC(C)(C)C5=O)cc3)c3c(N)ncnn23)CC1 [Example 115, N-(4-(4-Amino-7-(1-isobutyrylpiperidin-4-yl)pyrrolo[1,2-f][1,2,4]triazin-5-yl)phenyl)-1-(5-fluoropyridin-3-yl)-6,6-dimethyl-2,5-dioxo-1,2,5,6,7,8-hexahydroquinoline-3-carboxamide] |
| > 0.1 | ≤ 0.005 | CC(C)C(=O)N1CCC(c2cc(-c3ccc(NC(=O)c4cc(C5CC5)nn(-c5ccccc5)c4=O)cc3)c3c(N)ncnn23)CC1 [Example 117, N-{4-[4-Amino-7-(1-isobutyrylpiperidin-4-yl)pyrrolo[2,1-f][1,2,4]triazin-5-yl]phenyl}-6-cyclopropyl-3-oxo-2-phenyl-2,3-dihydropyridazine-4-carboxamide] |
| > 0.1 | ≤ 0.005 | Cc1c(-c2ccnn2C)cc(C(=O)Nc2ccc(-c3cc(C4CCN(C(=O)C(C)C)CC4)n4ncnc(N)c34)cc2)c(=O)n1-c1ccccn1 [Example 123, N-(4-(4-Amino-7-(1-isobutyrylpiperidin-4-yl)pyrrolo[2,1-f][1,2,4]triazin-5-yl)phenyl)-6-methyl-5-(1-methyl-1H-pyrazol-5-yl)-2-oxo-2H-[1,2′-bipyridine]-3-carboxamide] |
| > 0.1 | ≤ 0.005 | Cc1c(Cl)cc(C(=O)Nc2ccc(-c3cc(C4CCN(C(=O)C(C)C)CC4)n4ncnc(N)c34)cc2)c(=O)n1-c1ccccn1 [Example 124, N-(4-(4-Amino-7-(1-isobutyrylpiperidin-4-yl)pyrrolo[2,1-f][1,2,4]triazin-5-yl)phenyl)-5-chloro-6-methyl-2-oxo-2H-[1,2′-bipyridine]-3-carboxamide] |
| > 0.1 | ≤ 0.005 | CC(C)C(=O)N1CCC(c2cc(-c3ccc(NC(=O)c4cn(C(C)C)cc(-c5cccnc5)c4=O)cc3)c3c(N)ncnn23)CC1 [Example 128, N-(4-(4-Amino-7-(1-isobutyrylpiperidin-4-yl)pyrrolo[1,2-f][1,2,4]triazin-5-yl)phenyl)-1-isopropyl-4-oxo-5-(pyridin-3-yl)-1,4-dihydropyridine-3-carboxamide] |
| > 0.1 | ≤ 0.005 | CC(C)C(=O)N1CCC(c2cc(-c3ccc(NC(=O)c4cn(C(C)C)cc(-c5cncc(F)c5)c4=O)cc3)c3c(N)ncnn23)CC1 [Example 129, N-(4-(4-amino-7-(1-isobutyrylpiperidin-4-yl)pyrrolo[1,2-f][1,2,4]triazin-5-yl)phenyl)-5-(5-fluoropyridin-3-yl)-1-isopropyl-4-oxo-1,4-dihydropyridine-3-carboxamide] |
| > 0.1 | ≤ 0.005 | Cc1c(-c2cnn(C)c2)cc(C(=O)Nc2ccc(-c3cc(C4CCN(C(=O)C(C)C)CC4)n4ncnc(N)c34)cc2)c(=O)n1-c1cccnc1 [Example 133, N-(4-(4-Amino-7-(1-isobutyrylpiperidin-4-yl)pyrrolo[2,1-f][1,2,4]triazin-5-yl)phenyl)-6-methyl-5-(1-methyl-1H-pyrazol-4-yl)-2-oxo-2H-[1,3′-bipyridine]-3-carboxamide] |
| > 0.1 | ≤ 0.005 | Cc1c(-c2ccnn2C)cc(C(=O)Nc2ccc(-c3cc(C4CCN(C(=O)C(C)C)CC4)n4ncnc(N)c34)cc2)c(=O)n1-c1cccnc1 [Example 134, N-(4-(4-Amino-7-(1-isobutyrylpiperidin-4-yl)pyrrolo[2,1-f][1,2,4]triazin-5-yl)phenyl)-6-methyl-5-(1-methyl-1H-pyrazol-5-yl)-2-oxo-2H-[1,3′-bipyridine]-3-carboxamide] |
